The text below walks through data of patent publication US4824836A, “Spiro (4,5) decone compounds” (Adir et Compagnie, priority 1987, dated 1989).

This test concerns Peritoneal rat mastocytes. Kind of test: mastocyte degranulation test in vitro (inhibition of compound 48/80-induced histamine granule release). The class given is cell-based. As to conditions: rat peritoneal mastocytes incubated with compound 48/80; dose that inhibits histamine granule release by 50%. How it is done: The compounds of the invention and fenspiride, a prior art product taken as reference substance, were subjected to the mastocyte degranulation test:
Peritoneal rat mastocytes are incubated in vitro in the presence of compound 48/80, which causes histamine granules to be released. The protective effect of the tested compounds is expressed in IC50, that is to say the (molar) dose that inhibits this release by 50%.
Regarding `CCCc1c(OCCCN2CCC3(CC2)CNC(=O)O3)ccc(C(C)=O)c1O` [Example 1, 8-[3-(2-propyl-3-hydroxy-4-acetylphenoxy)propyl]-1-oxa-2-oxo-3,8-diaza-spiro[4.5]decane], the IC50 was determined as 240 µM.

Regarding `CCCc1c(OCCN2CCC3(CC2)CNC(=O)O3)ccc(C(C)=O)c1O` [Example 1a, 8-[2-(2-propyl-3-hydroxy-4-acetylphenoxy)ethyl]-1-oxa-2-oxo-3,8-diaza-spiro[4.5]decane], the IC50 amounted to 200 µM.

Turning to `CCCc1c(OCCCCN2CCC3(CC2)CNC(=O)O3)ccc(C(C)=O)c1O` [Example 1b, 8-[4-(2-propyl-3-hydroxy-4-acetylphenoxy)butyl]-1-oxa-2-oxo-3,8-diaza-spiro[4.5]decane], the IC50 came out at 200 µM.

For the compound `CCCc1c(OCC(O)CN2CCC3(CC2)CNC(=O)O3)ccc(C(C)=O)c1O` (centres unmarked) [Example 1c, 8-[3-(2-propyl-3-hydroxy-4-acetylphenoxy)-2-hydroxypropyl]-1-oxa-2-oxo-3,8-diaza-spiro[4.5]decane], the IC50 was 1000 µM.

For `CCCc1c(OCCCCCN2CCC3(CC2)CNC(=O)O3)ccc(C(C)=O)c1O` [Example 1d, 8-[5-(2-propyl-3-hydroxy-4-acetylphenoxy)pentyl]-1-oxa-2-oxo-3,8-diaza-spiro[4.5]decane], the IC50 was found to be 110 µM.

Consider `CCCc1c(OCCCCCCN2CCC3(CC2)CNC(=O)O3)ccc(C(C)=O)c1O` [Example 1e, 8-[6-(2-propyl-3-hydroxy-4-acetylphenoxy)hexyl]-1-oxa-2-oxo-3,8-diaza-spiro[4.5]decane], for which the IC50 is 92 µM.

`CCCc1c(OCCN2CCC3(CC2)OC(=O)NC3C)ccc(C(C)=O)c1O` (centres unmarked) [Example 1f, 8-[2-(2-propyl-3-hydroxy-4-acetylphenoxy)ethyl]-1-oxa-2-oxo-3,8-diaza-4-methyl-spiro[4.5]decane]: the IC50 came to 100 µM.

For `C=CCc1c(OCCCN2CCC3(CC2)CNC(=O)O3)ccc(C(C)=O)c1O` [Example 1h, 8-[3-(2-allyl-3-hydroxy-4-acetylphenoxy)propyl]-1-oxa-2-oxo-3,8-diaza-spiro[4.5]decane], the IC50 was found to be 250 µM.

As for `CCCc1c(OCCCN2CCC3(CC2)CNC(=O)O3)ccc2c(=O)cc(C(=O)OCC)oc12` [Example 1i, 8-[3-(2-ethoxycarbonyl-8-propyl-7-chrom-4-onyloxy)propyl]-1-oxa-2-oxo-3,8-diaza-spiro[4.5]decane], the IC50 was 100 µM.

As to `CCCc1c(OCCCN2CCC3(CC2)CNC(=O)O3)ccc2c1OCCC2=O` [Example 1j], the IC50 turned out to be 100 µM.

Take `CCc1c(OCCCN2CCC3(CC2)CNC(=O)O3)ccc(C(C)=O)c1O` [Example 1k, 8-[3-(2-ethyl-3-hydroxy-4-acetylphenoxy)propyl]-1-oxa-2-oxo-3,8-diaza-spiro[4.5]decane]: the IC50 came to 830 µM.

`CC(=O)c1ccc(OCCCN2CCC3(CC2)CNC(=O)O3)c(CC(C)C)c1O` [Example 1l, 8-[3-(2-isobutyl-3-hydroxy-4-acetylphenoxy)propyl]-1-oxa-2-oxo-3,8-diaza-spiro[4.5]decane]: the IC50 worked out at 116 µM.

Turning to `CCCc1c(OCCCN2CCC3(CC2)OC(=O)NC3C)ccc(C(C)=O)c1O` (centres unmarked) [Example 2, 8-[3-(2-propyl-3-hydroxy-4-acetylphenoxy)propyl]-1-oxa-2-oxo-3,8-diaza-4-methyl-spiro[4.5]decane], the IC50 came to 200 µM.

Take `CCCc1c(OCCCN2CCC3(CC2)CNC(=O)O3)ccc2c(=O)cc(C(=O)O)oc12` [Example 3, 8-[3-(2-carboxy-8-propyl-7-chrom-4-onyloxy)propyl]-1-oxa-2-oxo-3,8-diaza-spiro[4.5]decane]: the IC50 was found to be 1000 µM.

Regarding `CCCc1c(OCCCN2CCC3(CC2)CN(C(C)=O)C(=O)O3)ccc(C(C)=O)c1OC(C)=O` [Example 4, 8-[3-(2-propyl-3-acetoxy-4-acetylphenoxy)propyl]-1-oxa-2-oxo-3,8-diaza-3-acetyl-spiro[4.5]decane], the IC50 worked out at 720 µM.

On to `C=CCc1c(OCCCN2CCC3(CC2)CN(C(C)=O)C(=O)O3)ccc(C(C)=O)c1OC(C)=O` [Example 4a, 8-[3-(2-allyl-3-acetoxy-4-acetylphenoxy)propyl]-1-oxa-2-oxo-3,8-diaza-3-acetyl-spiro[4.5]decane], for which the IC50 is 2500 µM.

As to `CCCc1c(OCCCCCN2CCC3(CC2)CN(C(C)=O)C(=O)O3)ccc(C(C)=O)c1OC(C)=O` [Example 4b, 8-[5-(2-propyl-3-acetoxy-4-acetylphenoxy)pentyl]-1-oxa-2-oxo-3,8-diaza-3-acetyl-spiro[4.5]decane], the IC50 was 1000 µM.

For `CCc1c(OCCCN2CCC3(CC2)CN(C(C)=O)C(=O)O3)ccc(C(C)=O)c1OC(C)=O` [Example 4c, 8-[3-(2-ethyl-3-acetoxy-4-acetylphenoxy)propyl]-1-oxa-2-oxo-3,8-diaza-3-acetyl-spiro[4.5]decane], the IC50 is over 1000 µM.

For the compound `CC(=O)Oc1c(C(C)=O)ccc(OCCCN2CCC3(CC2)CN(C(C)=O)C(=O)O3)c1CC(C)C` [Example 4d, 8-[3-(2-isobutyl-3-acetoxy-4-acetylphenoxy)propyl]-1-oxa-2-oxo-3,8-diaza-3-acetyl-spiro[4.5]decane], the IC50 came out at 730 µM.

`C=CCc1c(OCCCN2CCC3(CC2)CN(C(C)=O)C(=O)O3)ccc(C(C)=O)c1O` [Example 5, 8-[3-(2-allyl-3-hydroxy-4-acetylphenoxy)propyl]-1-oxa-2-oxo-3,8-diaza-3-acetyl-spiro[4.5]decane]: the IC50 came to 750 µM.

On to `CCCc1c(OCCCN2CCC3(CC2)CNC(=O)O3)ccc(C(C)=O)c1OC(C)=O` [Example 6, 8-[3-(2-propyl-3-acetoxy-4-acetylphenoxy)propyl]-1-oxa-2-oxo-3,8-diaza-spiro[4.5]decane], for which the IC50 was 1200 µM.

As for `CCCc1c(OCCCCCN2CCC3(CC2)CNC(=O)O3)ccc(C(C)=O)c1OC(C)=O` [Example 6a, 8-[5-(2-propyl-3-acetoxy-4-acetylphenoxy)pentyl]-1-oxa-2-oxo-3,8-diaza-spiro[4.5]decane], the IC50 was determined as 2000 µM.

Take `O=C1NCC2(CCN(CCc3ccccc3)CC2)O1` [fenspiride, reference compound]: the “Mastocyte degranulation in vitro - IC50” value was “inactive”.
